Source: ChEMBL document CHEMBL5634169 (Bioorg Med Chem Lett, 2024)

Assay: Inhibition of Influenza A virus H5N1 neuraminidase

Row | SMILES | IC50
1 | C/C(=N\NC(=O)Cc1cccc2ccccc12)c1ccc(NC(=O)Cc2cccs2)cc1 | 2.78 µM
2 | C/C(=N\NC(=O)c1ccc([N+](=O)[O-])cc1)c1ccc(NC(=O)c2ccco2)cc1 | 1.53 µM
3 | C/C(=N\NC(=O)c1ccc(Cl)cc1)c1ccc(NC(=O)c2ccco2)cc1 | 21.3 µM
4 | C/C(=N\NC(=O)c1ccc([N+](=O)[O-])cc1)c1ccc(NC(=O)Cc2cccs2)cc1 | 6.1 µM
5 | COc1ccc(C(=O)N/N=C(\C)c2ccc(NC(=O)Cc3cccs3)cc2)cc1 | 0.13 µM
6 | C/C(=N\NC(=O)c1ccc(F)cc1)c1ccc(NC(=O)c2ccco2)cc1 | 19.4 µM
7 | C/C(=N\NC(=O)Cc1cccc2ccccc12)c1ccc(NC(=O)c2ccco2)cc1 | 46.8 µM
8 | C/C(=N\NC(=O)c1ccc(Cl)cc1)c1ccc(NC(=O)Cc2cccs2)cc1 | 0.31 µM
9 | C/C(=N\NC(=O)c1ccc(C(C)(C)C)cc1)c1ccc(NC(=O)Cc2cccs2)cc1 | 0.94 µM
10 | COc1ccc(C(=O)N/N=C(\C)c2ccc(NC(=O)c3ccco3)cc2)cc1 | 32 µM
11 | C/C(=N\NC(=O)c1ccc(F)cc1)c1ccc(NC(=O)Cc2cccs2)cc1 | 23.6 µM
12 | C/C(=N\NC(=O)c1ccc(O)cc1)c1ccc(NC(=O)Cc2cccs2)cc1 | 0.65 µM
13 | C/C(=N\NC(=O)c1ccc(C(C)(C)C)cc1)c1ccc(NC(=O)c2ccco2)cc1 | 28.6 µM
14 | C/C(=N\NC(=O)c1ccc(O)cc1)c1ccc(NC(=O)c2ccco2)cc1 | 0.2 µM
15 | CCC(CC)O[C@@H]1C=C(C(=O)O)C[C@H](N)[C@H]1NC(C)=O [OSELTAMIVIR CARBOXYLATE] | 0.31 µM

Assay: Cytotoxicity against human A549 cells by SRB assay
Type: toxicity, cell-based

Row | SMILES | CC50
16 | COc1ccc(C(=O)N/N=C(\C)c2ccc(NC(=O)Cc3cccs3)cc2)cc1 | 37.6 µM
17 | C/C(=N\NC(=O)c1ccc(F)cc1)c1ccc(NC(=O)Cc2cccs2)cc1 | 55.3 µM
18 | CCC(CC)O[C@@H]1C=C(C(=O)O)C[C@H](N)[C@H]1NC(C)=O [OSELTAMIVIR CARBOXYLATE] | 61.2 µM
